Source: patent US20240226124A9, “CANNABIDIOL FOR TREATING NEURODEGENERATIVE DISEASES” (AUGUSTA UNIVERSITY RESEARCH INSTITUTE, INC., priority 2021, published 2024)

Columns and labels:
Assay type in all cases: in vivo, mouse
[1] = test system: TREM2; assay: Immunofluorescence staining of TREM2 in brain tissues; details: 5xFAD mice, CBD treated compared to untreated group; distinctively in microglial cells
Experimental: (§1) 5xFAD (expressing human APP and PSEN1 transgenes with a total of five AD-linked mutations) transgenic mice (male 9-12-month-olds) were used. These 5xFAD transgenic mice rapidly recapitulate major features of AD amyloid pathology. Mice were randomized into two experimental groups (placebo or CBD-treated; 6-10 mice/group) by a blinded investigator. A group of untreated wild-type (WT) experiments were performed in accordance with the rules and regulations of the Augusta University Institutional Animal Care and Use Committee (IACUC). In the treatment group, mice received CBD isolate (tetrahydrocannabinol-free, Canabidiol Ltd., Dublin, Ireland), 10 mg/kg intraperitoneally every other day for 8 doses over 2 weeks. Placebo-treated mice were administered along the same schedule as CBD.
(§2) Brain and blood tissues were collected and processed for histology and Immunofluorescence imaging. Briefly, brain tissues were labeled with specific, fluorescent-conjugated antibodies with fluorescent conjugation against amyloid-β, IL-33, IBA1 (for microglia), TREM2, and GFAP (Glial Fibrillary Acidic Protein for astrocytes identification). Slides were counterstained using DAPI (4′,6-diamidino-2-phenylindole) prior to examination and imaging by Zeiss Fluorescence Microscope.

[2] = test system: TREM2; assay: Flow cytometry of TREM2 in brain microglia (CD11b+ cells); details: brain of 5xFAD mice, CBD 10 mg/kg intraperitoneally, 8 doses over 2 weeks; p≤0.0001
Experimental: as §1, with “Placebo-treated mice were administered along the same schedule as CBD.” left out
(§3) For flow cytometry analysis, single-cell suspension was prepared from brain, and blood by sieving the brain tissues through a […] cell strainer followed by centrifugation (252 g, 10 min). All cells were then stained with fluorescent antibodies based on routine flow cytometry staining protocol as described previously to quantify astrocytes (GFAP+cells), IL-33, myeloid cells (CD11b+), and TREM2 in the brain as well as leukocytes (CD45+) and IL-6 in the blood. IL-6 was measured as a reliable biomarker in the blood. […] Proper compensation was set to ensure the median fluorescence intensities of negative and positive cells were […] and then was used to gate the population. […]

[3] = test system: 5xFAD mice; assay: Novel Object Recognition (NOR) test in 5xFAD mice; details: CBD 10 mg/kg intraperitoneally every other day, 8 doses over 2 weeks, from −0.2±0.8 in placebo, p≤0.04
Experimental: as §1, with “Placebo-treated mice were administered along the same schedule as CBD.” left out
(§4) To assess the behavior, Open Field (OF) and Novel Object Recognition (NOR) tests were used. […] The ability of the mouse to discriminate between the familiar and novel object was quantified as a discrimination index, DI=(Tn−Tf)/(Tn+Tf), where Tn is the time spent by the mouse with the novel object, and Tf indicates the time spent with the familiar object. In OF evaluation, mice were tested in a square box (40 cm by 40 cm by 40 cm) for 10 min, and activity was digitally recorded. Distance traveled, mean velocity, and time spent in the center zone were analyzed with Ethovision XT video-tracking software (Noldus Information Technology, USA).

[4] = test system: 5xFAD mice; assay: Open Field (OF) test in 5xFAD mice; details: CBD 10 mg/kg intraperitoneally every other day, 8 doses over 2 weeks, 10 min test, from 190±90 sec in placebo, p>0.05
Experimental: as §1, with “Placebo-treated mice were administered along the same schedule as CBD.” left out
as §4

[5] = test system: IL-33; assay: Flow cytometry of IL-33 in brain astrocytes (GFAP+ cells); details: brain of 5xFAD mice, CBD 10 mg/kg intraperitoneally, 8 doses over 2 weeks; p≤0.001
Experimental: as §1, with “Placebo-treated mice were administered along the same schedule as CBD.” left out
as §3

[6] = test system: IL-6; assay: Flow cytometry of IL-6 in peripheral blood leukocytes; details: whole blood of 5xFAD mice, CBD 10 mg/kg intraperitoneally, 8 doses over 2 weeks; decreased from 6.9±1.9%, p≤0.009
Experimental: 5xFAD (expressing human APP and PSEN1 transgenes with a total of five AD-linked mutations) transgenic mice (male 9-12-month-olds) were used. These 5xFAD transgenic mice rapidly recapitulate major features of AD amyloid pathology. Mice were randomized into two experimental groups (placebo or CBD-treated; 6-10 mice/group) by a blinded investigator. A group of untreated wild-type (WT) experiments were performed in accordance with the rules and regulations of the Augusta University Institutional Animal Care and Use Committee (IACUC). […]
For flow cytometry analysis, single-cell suspension was prepared from brain, and blood by sieving the brain tissues through a […] cell strainer followed by centrifugation (252 g, 10 min). All cells were then stained with fluorescent antibodies based on routine flow cytometry staining protocol as described previously to quantify astrocytes (GFAP+cells), IL-33, myeloid cells (CD11b+), and TREM2 in the brain as well as leukocytes (CD45+) and IL-6 in the blood. IL-6 was measured as a reliable biomarker in the blood. […] Flow cytometry data were analyzed using FlowJo V10. Proper compensation was set to ensure the median fluorescence intensities of negative and positive cells were […] and then was used to gate the population. […]

[7] = test system: β-amyloid peptide; assay: Immunofluorescence staining of β-amyloid peptide in brain tissues; details: 5xFAD mice, CBD 10 mg/kg intraperitoneally every other day, 8 doses over 2 weeks; hippocampus area
Experimental: as §1, §2

[8] = test system: IL-33; assay: Immunofluorescence staining of IL-33 in brain tissues; details: 5xFAD mice, CBD treated compared to untreated group; more evident in astrocytes
Experimental: as §1, §2

Structure (SMILES): C=C(C)[C@@H]1CCC(C)=C[C@H]1c1c(O)cc(CCCCC)cc1O [CBD, cannabidiol]
- TREM2 expression in brain tissues (immunofluorescence) [1]: increase in TREM2 expression
- increase in TREM2 expression in microglia (CD11b+ cells), flow cytometry [2]: 10 fold
- discrimination index (DI), NOR [3]: 0.5±0.9
- Central zone stay, OF test [4]: 250 ± 80 s
- increase in IL-33 expression in astrocytes (GFAP+ cells), flow cytometry [5]: 7 fold
- IL-6 expression in peripheral leukocytes, flow cytometry [6]: 2.1±1.4%
- β-amyloid peptide in brain tissues (immunofluorescence) [7]: reduction of β-amyloid peptide
- IL-33 expression in brain tissues (immunofluorescence) [8]: increase the expression of IL-33
